We go through two compounds from patent EP3368040B1, “METHODS AND COMPOSITIONS FOR RECOVERY FROM STROKE” (Eip Pharma, LLC, priority 2015, dated 2017).

Data set [1] can be described thus: transient MCAO in rats: mortality and clinical signs. Type of data set: in vivo.
Protocol: Animals were handled at a minimum for three days before the surgery. Baseline measures were taken before stroke was induced. Stroke surgery occurred on Day 1. On Day 2, 24 hours post-stroke surgery, Neuroscore testing was performed. Only animals reaching and exceeding Neuroscore criteria was included in the study. […] Behavioral tests for all groups were conducted on weeks 4 and 6. Animals were sacrificed on Day 44 and brains were harvested.
Another data set relates to cytokine signaling. The settings on record: relative to IC50 for cytokine production; Alam 2015; cited from earlier work.
Data set [2] has as its system rat model of stroke. The data set can be described thus: transient MCAO in rats: body swing test. Type of data set: in vivo, Sprague Dawley rats. As to conditions: particularly in the 4.5 mg/kg dose group. On the procedure: (§1) Altogether 76 adult male Sprague Dawley rats, purchased from Harlan Laboratories, (Israel), and weighing 300-350 g were used for the experiment. Animals were housed at a standard temperature (20-24°C) and in a light-controlled environment (12 hours light / 12 hours dark) with ad libitum access to food and water. Animals were grouped as follows: • Group 1M: 20 tMCAO animals treated twice-a-day with vehicle from Day 3 (day 1 being day of stroke surgery) to Day 42 (via PO gavage) • Group 2M: 22 tMCAO animals treated twice-a-day with VX-745 (1.5 mg/kg) from Day 3 (day 1 being day of stroke surgery) to Day 42 (via PO gavage) • Group 3M: 21 tMCAO animals treated twice-a-day with VX-745 (4.5 mg/kg) from Day 3 (day 1 being day of stroke surgery) to Day 42 (via PO gavage)
(§2) Transient middle cerebral artery occlusion was performed according to the method described in R. Schmid-Elsaesser et al., Stroke, 29(10):2162-2170 (1998). […]
Body Swing Test. […] A swing was recorded whenever the rat moved its head out of the vertical axis to either side. Before attempting another swing, the rat had must return to the vertical position for the next swing to be counted. Twenty (20) total swings were counted. […] Body swing scores were expressed as a percentage of rightward over total swings. […]

Data set [3] in a line: brain versus blood drug concentration in pre-clinical studies. The format is in vivo.
Data set [4] concerns rat model of stroke. The experiment in a line: transient MCAO in rats: neurological scoring (Neuroscore, mNSS). The format is in vivo, Sprague Dawley rats. The procedure: as §1
Transient middle cerebral artery occlusion was performed according to the method described in R. Schmid-Elsaesser et al., Stroke, 29(10):2162-2170 (1998). The right Common Carotid Artery (CCA) was exposed through a midline neck incision and carefully dissected free from surrounding nerves and fascia - from its bifurcation to the base of the skull. The occipital artery branches of the ECA (External Carotid Artery) were then isolated, and these branches were dissected and coagulated. The ECA was dissected further distally and coagulated along with the terminal lingual and maxillary artery branches, which was then divided. The ICA (Internal Carotid Artery) was isolated and carefully separated from the adjacent vagus nerve, and the pterygopalatine artery was ligated close to its origin with a 5-0 nylon suture (SMI, Belgium). Next, a 4-0 silk suture was tied loosely around the mobilized ECA stump, and a 4 cm length of 4-0 monofilament nylon suture (the tip of the suture was blunted by using a flame, and the suture was coated with polylysine, prior to insertion) was inserted through the proximal ECA into the ICA and thence into the circle of Willis, effectively occluding the MCA. The surgical wound was closed and the animals were returned to their cages to recover from anesthesia. […]

The conditions of data set [5]: treatment of rheumatoid arthritis; cited from earlier work.
In data set [6] the test system is rat model of stroke. The experiment in a line: transient MCAO in rats: forelimb placement test. The format is in vivo, Sprague Dawley rats. The settings on record: Week 4 and Week 6; 1.5 and 4.5 mg/kg PO twice a day. The procedure: as §1
Transient middle cerebral artery occlusion was performed according to the method described in R. Schmid-Elsaesser et al., Stroke, 29(10):2162-2170 (1998). The right Common Carotid Artery (CCA) was exposed through a midline neck incision and carefully dissected free from surrounding nerves and fascia - from its bifurcation to the base of the skull. The occipital artery branches of the ECA (External Carotid Artery) were then isolated, and these branches were dissected and coagulated. The ECA was dissected further distally and coagulated along with the terminal lingual and maxillary artery branches, which was then divided. […]

In the next data set the test system is IL-1β. The experiment in a line: transient MCAO in rats: IL-1β ELISA of brain at study termination. The format is in vivo, Sprague Dawley rats. As to conditions: study termination (Day 44); right minus left hemisphere; trend to lower concentrations in treated groups. From the text: The brains of all animals were harvested on Day 44. Rats were sacrificed by CO2 inhalation. Brains were harvested from all animals in each group, divided to left and right hemisphere, weighed, and snap frozen.
Brains were harvested at study termination. Each brain was dissected into two hemispheres and each hemisphere was weighed and enclosed into tubes marked Left or Right. Each tube was immediately frozen in liquid nitrogen and stored at (-80)°C. The tissues were defrosted and homogenized in 1 ml / 200 mg tissue of 20mM Tris-HCL pH 7.4 containing a protease inhibitor cocktail (50 µl/ml). Samples were centrifuged at 10,000 g for 15 min at 4°. Clear supernatants were aliquoted (150 µl/aliquot) and stored at (-80)°C until EILSA assays were performed. ELISA assay was executed according to kit instructions. Standards and samples were tested in duplicates.
Following study termination, animals were also tested for IL-1β brain levels using the ELISA system (see Figure 8 for standard curves). The variability of the results was too large to allow definitive conclusions. All the results below the Lower Limit of Quantification (LLOQ) were assigned the LLOQ value of 5pg/ml. Then, results for the uninjured left side were subtracted from the results of the right side. The distribution for individual rats is given in the figure below (n=18 in each of the study groups) (Figure 9).

Data set [7] is described as follows: transient MCAO in rats: body weight monitoring. Type of data set: in vivo, Sprague Dawley rats. As to conditions: through the study; 1.5 and 4.5 mg/kg PO twice a day versus vehicle. On the procedure:
as §1
Animals were handled at a minimum for three days before the surgery. Baseline measures were taken before stroke was induced. Stroke surgery occurred on Day 1. On Day 2, 24 hours post-stroke surgery, Neuroscore testing was performed. Only animals reaching and exceeding Neuroscore criteria was included in the study. On Days 3-42, treatment with vehicle or VX-745 was administered twice a day for 40 days via PO (oral) gavage for all groups. Behavioral tests for all groups were conducted on weeks 4 and 6. Animals were sacrificed on Day 44 and brains were harvested. […]

Data set [8] deals with rat model of stroke. The data set can be described thus: transient MCAO in rats: stepping test. The format is in vivo, Sprague Dawley rats. As to conditions: Week 4 up to Week 6; 1.5 and 4.5 mg/kg PO twice a day. The procedure:
as §1, §2
Stepping Test. […] The animal was held with its hind limbs fixed in one hand and the forelimb, not to be monitored, in the other, while the unrestrained fore-paw touches the table. The number of adjusting steps were counted while the animal was moved sideways along the table surface (85 cm during approximately five seconds), in the forehand & backhand direction for both forelimbs. […]

The test system of the next data set is cytokine production. The settings on record: inhibition of cytokine production; cited from earlier work.
A further data set relates to animal models of stroke. As to conditions: administered 24-hours after stroke; Piao et al. 2003; cited from earlier work.

Each structure is given as a SMILES string.

For the compound `O=c1ncn2nc(Sc3ccc(F)cc3F)ccc2c1-c1c(Cl)cccc1Cl` [VX-745], in data set [1] (1.5 mg/kg group (2M), within two weeks of treatment initiation), the “rats that died after treatment initiation” value is given as “one”. Further, in data set [1] (1.5 and 4.5 mg/kg PO twice a day versus vehicle), the “general clinical signs, differences between groups” value is reported as “no observed differences”. The “IC50 for inhibition of cytokine signaling” value with cytokine signaling is “half that for cytokine production”. The “body swing test, outcome” value in the data set on rat model of stroke [2] is given as “near normalization”. For the same compound, the “drug concentrations in the brain compared with the blood” value in [3] is recorded as “approximately two-fold”. The “neuroscore, difference between the two doses” value in the data set on rat model of stroke [4] (1.5 mg/kg versus 4.5 mg/kg PO twice a day (Figure 2)) is “statistically significant difference”. The “neuroscore delta (change from Day 2 to actual Week) versus vehicle treated control group” value in the data set on rat model of stroke [4] (Week 4 or Week 6, 1.5 and 4.5 mg/kg PO twice a day, Day 3 to Day 42) is “statistically significant difference”. In addition, the “absolute neuroscore versus vehicle treated control group” value with rat model of stroke [4] (Weeks 4 and 6, 1.5 and 4.5 mg/kg PO twice a day, Day 3 to Day 42, start 48 hours after reperfusion) is given as “statistically significant difference”. The mean blood concentration result in data set [5] was “approximately 75 ng/mL”. Further, in the data set on rat model of stroke [6], the “forelimb placement test, sensory motor improvement versus vehicle treated control group” value was “Statistically significant differences”. Moreover, the “IL-1β levels in the brain, differences between groups” value in the data set with IL-1β was “No statistically significant differences”. Further, in data set [7], the “body weight, differences between groups” value is given as “No statistically significant differences”. For the same compound, the “stepping test, sensory motor deficit (number of steps, left forelimb) versus vehicle treated control group” value in the data set on rat model of stroke [8] is recorded as “Statistically significant differences”. In the data set on cytokine production, the “whole blood IC50” value was 0.065 to 0.08 µg/mL.
`C[S+]([O-])c1ccc(-c2nc(-c3ccc(F)cc3)c(-c3ccncc3)[nH]2)cc1` (stereo not drawn) [SB203850]: the “effect on recovery from neurologic deficit” value with animal models of stroke is on record as “no significant effect”.
